According to ChEMBL document CHEMBL1201862, “PubChem BioAssay data set” (2004):
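Compound exposure: 48 hours, 5 concentrations, 96-well plates. The concentration for 50% growth inhibition is given as GI50.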 The source made the active and inactive calls. Cut-off read from the data, not from the text of the source: active = GI50 up to about 1.1 µM and inactive = higher.

Tests used:
Assay in all cases: NCI anticancer screen, dose series, 48 h
[1] = tested on: MDA-MB-231
[2] = tested on: SK-OV-3
[3] = tested on: SK-MEL-2
[4] = tested on: SNB-19
[5] = tested on: PC-3
[6] = tested on: NCI-H522
[7] = tested on: MCF7
[8] = tested on: IGROV-1
[9] = tested on: Malme-3M
[10] = tested on: NCI-H23
[11] = tested on: BT-549
[12] = tested on: HOP-62
[13] = tested on: HCT-116
[14] = tested on: NCI/ADR-RES
[15] = tested on: HCC 2998
[16] = tested on: UO-31
[17] = tested on: TK-10
[18] = tested on: SK-MEL-28
[19] = tested on: SF-268
[20] = tested on: UACC-257
[21] = tested on: K562
[22] = tested on: LOX IMVI
[23] = tested on: UACC-62
[24] = tested on: COLO 205
[25] = tested on: MDA-MB-435
[26] = tested on: Hs-578T
[27] = tested on: CAKI-1
[28] = tested on: OVCAR-8
[29] = tested on: OVCAR-4
[30] = tested on: M14
[31] = tested on: MDA-N
[32] = tested on: U-251
[33] = tested on: CCRF-CEM
[34] = tested on: HCT-15
[35] = tested on: 786-0
[36] = tested on: A549
[37] = tested on: ACHN
[38] = tested on: MOLT-4
[39] = tested on: SR
[40] = tested on: NCI-H460
[41] = tested on: KM12
[42] = tested on: EKVX
[43] = tested on: HOP-92
[44] = tested on: SF-295
[45] = tested on: T47D
[46] = tested on: OVCAR-5
[47] = tested on: RPMI-8226
[48] = tested on: OVCAR-3
[49] = tested on: A498
[50] = tested on: HT-29
[51] = tested on: SN12C
[52] = tested on: RXF 393
[53] = tested on: DU-145
[54] = tested on: SF-539
[55] = tested on: SW-620
[56] = tested on: HL-60
[57] = tested on: NCI-H226
[58] = tested on: SK-MEL-5

SMILES: CN(C)CCCNc1ccc2nnn3c4ccc(OC(=O)c5ccccc5)cc4c(=O)c1c23
- GI50 [1]: 10.4 µM (inactive)
- GI50 [2]: 9.51 µM (inactive)
- GI50 [3]: 15.9 µM (inactive)
- GI50 [4]: 10.9 µM (inactive)
- GI50 [5]: 8.34 µM (inactive)
- GI50 [6]: 2.84 µM (inactive)
- GI50 [7]: 6.07 µM (inactive)
- GI50 [8]: 2.11 µM (inactive)
- GI50 [9]: 11.5 µM (inactive)
- GI50 [10]: 13.4 µM (inactive)
- GI50 [11]: 16.8 µM (inactive)
- GI50 [12]: 5.92 µM (inactive)
- GI50 [13]: 3.15 µM (inactive)
- GI50 [14]: 12.5 µM (inactive)
- GI50 [15]: 9.08 µM (inactive)
- GI50 [16]: 4.14 µM (inactive)
- GI50 [17]: 7.8 µM (inactive)
- GI50 [18]: 15.8 µM (inactive)
- GI50 [19]: 10.5 µM (inactive)
- GI50 [20]: 16 µM (inactive)
- GI50 [21]: 1.81 µM (inactive)
- GI50 [22]: 2.17 µM (inactive)
- GI50 [23]: 14.5 µM (inactive)
- GI50 [24]: 14 µM (inactive)
- GI50 [25]: 6.4 µM (inactive)
- GI50 [26]: 18.3 µM (inactive)
- GI50 [27]: 0.579 µM (active)
- GI50 [28]: 4.55 µM (inactive)
- GI50 [29]: 1.66 µM (inactive)
- GI50 [30]: 13.4 µM (inactive)
- GI50 [31]: 13.8 µM (inactive)
- GI50 [32]: 11.5 µM (inactive)
- GI50 [33]: 1.08 µM (active)
- GI50 [34]: 5.36 µM
- GI50 [35]: 3.08 µM (inactive)
- GI50 [36]: 2.43 µM (inactive)
- GI50 [37]: 3.05 µM (inactive)
- GI50 [38]: 0.192 µM (active)
- GI50 [39]: 0.697 µM (active)
- GI50 [40]: 0.76 µM (active)
- GI50 [41]: 4.92 µM (inactive)
- GI50 [42]: 4.24 µM (inactive)
- GI50 [43]: 12.6 µM (inactive)
- GI50 [44]: 10.9 µM (inactive)
- GI50 [45]: 18.7 µM (inactive)
- GI50 [46]: 14.4 µM (inactive)
- GI50 [47]: 3.29 µM (inactive)
- GI50 [48]: 11.5 µM (inactive)
- GI50 [49]: 8.41 µM (inactive)
- GI50 [50]: 3.71 µM (inactive)
- GI50 [51]: 5.06 µM (inactive)
- GI50 [52]: 4.44 µM (inactive)
- GI50 [53]: 8.26 µM (inactive)
- GI50 [54]: 6.76 µM (inactive)
- GI50 [55]: 4.53 µM (inactive)

SMILES: CC1=C(C)C2(C#N)C(=O)N3C(=NC(c4ccccc4)NC3c3ccccc3)C2(C#N)C(c2ccccc2)N1 (stereo unspecified)
- GI50 [1]: > 100 µM (inactive)
- GI50 [2]: > 100 µM (inactive)
- GI50 [3]: > 100 µM (inactive)
- GI50 [4]: > 100 µM (inactive)
- GI50 [5]: > 100 µM (inactive)
- GI50 [6]: > 100 µM (inactive)
- GI50 [7]: > 100 µM (inactive)
- GI50 [8]: > 100 µM (inactive)
- GI50 [9]: > 100 µM (inactive)
- GI50 [10]: > 100 µM (inactive)
- GI50 [11]: > 100 µM (inactive)
- GI50 [12]: > 100 µM (inactive)
- GI50 [13]: > 100 µM (inactive)
- GI50 [14]: > 100 µM (inactive)
- GI50 [15]: > 100 µM (inactive)
- GI50 [16]: > 100 µM (inactive)
- GI50 [17]: > 100 µM (inactive)
- GI50 [18]: > 100 µM (inactive)
- GI50 [56]: > 100 µM (inactive)
- GI50 [19]: > 100 µM (inactive)
- GI50 [20]: > 100 µM (inactive)
- GI50 [21]: > 100 µM (inactive)
- GI50 [22]: > 100 µM (inactive)
- GI50 [23]: > 100 µM (inactive)
- GI50 [57]: > 100 µM (inactive)
- GI50 [24]: > 100 µM (inactive)
- GI50 [25]: > 100 µM (inactive)
- GI50 [58]: > 100 µM (inactive)
- GI50 [26]: > 100 µM (inactive)
- GI50 [27]: > 100 µM (inactive)
- GI50 [28]: > 100 µM (inactive)
- GI50 [29]: > 100 µM (inactive)
- GI50 [30]: > 100 µM (inactive)
- GI50 [31]: > 100 µM (inactive)
- GI50 [32]: > 100 µM (inactive)
- GI50 [33]: > 100 µM (inactive)
- GI50 [34]: > 100 µM
- GI50 [35]: > 100 µM (inactive)
- GI50 [36]: > 100 µM (inactive)
- GI50 [37]: > 100 µM (inactive)
- GI50 [38]: > 100 µM (inactive)
- GI50 [39]: > 100 µM (inactive)
- GI50 [40]: > 100 µM (inactive)
- GI50 [41]: > 100 µM (inactive)
- GI50 [42]: > 100 µM (inactive)
- GI50 [43]: > 100 µM (inactive)
- GI50 [44]: > 100 µM (inactive)
- GI50 [45]: > 100 µM (inactive)
- GI50 [46]: > 100 µM (inactive)
- GI50 [47]: > 100 µM (inactive)
- GI50 [49]: > 100 µM (inactive)
- GI50 [50]: > 100 µM (inactive)
- GI50 [51]: > 100 µM (inactive)
- GI50 [52]: > 100 µM (inactive)
- GI50 [53]: > 100 µM (inactive)
- GI50 [55]: > 100 µM (inactive)
